# Measurements as given in patent publication US12404244B2, “Pan-KIT kinase inhibitor having quinoline structure and application thereof” (Tarapeutics Science Inc., priority 2018, dated 2025).
# Where two headings read alike, the source gives them in different places.
# Assays:
# [1] = tested on: TEL-KIT-BaF3 (stably expressing KIT wild-type kinase); experiment: Proliferation of TEL-KIT-BaF3 cells (CCK-8); format: cell-based, mouse; settings: Mus musculus, read-out: GI50 TEL-KIT-BaF3
# Description: Compounds as provided herein were further evaluated for their inhibitory effects on proliferation of cancer cells by testing their effects on growth of cancer cells. In this example the following cells were used: primary mouse B cells BaF3 (purchased from ATCC), GIST-T1 cells of the human gastrointestinal stromal tumor cell line (expressing wild-type KIT gene) (purchased from Cosmo Bio Co., Ltd. (Japan)). The present lab further constructed and used the following: mouse Tel-Kit-BaF3 (stably expressing KIT wild-type kinase), mouse Tel-Kit/T670I-BaF3 (stably expressing KIT T670I mutant kinase), mouse Tel-Kit/V559A-BaF3 (stably expressing KIT V559A mutant kinase), mouse Tel-Kit/V559D-BaF3 (stably expressing KIT V559D mutant kinase), mouse Tel-Kit/V559G-BaF3 (stably expressing KIT V559G mutant kinase), mouse Tel-Kit/V560D-BaF3 (stably expressing KIT V560D mutant kinase), mouse Tel-Kit/L576P-BaF3 (stably expressing KIT L576P mutant kinase), mouse Tel-Kit/V654A-BaF3 (stably expressing KIT V654A mutant kinase), mouse Tel-Kit/V654A/V559D-BaF3 (stably expressing KIT V654A V559D mutant kinase), mouse Tel-Kit/T670E-BaF3 (stably expressing KIT T670E mutant kinase), mouse Tel-Kit/T670I/V559D-BaF3 (stably expressing KIT T670I V559D mutant kinase), mouse Tel-Kit/S709F-BaF3 (stably expressing KIT S709F mutant kinase), mouse Tel-Kit/D816E-BaF3 (stably expressing KIT D816E mutant kinase), mouse Tel-Kit/D816H-BaF3 (stably expressing KIT D816H mutant kinase), mouse Tel-Kit/D820E-BaF3 (stably expressing KIT D820E mutant kinase), mouse Tel-Kit/D820G-BaF3 (stably expressing KIT D820G mutant kinase), mouse Tel-Kit/D820Y-BaF3 (stably expressing KIT D820Y mutant kinase), mouse Tel-Kit/N822K-BaF3 (stably expressing KIT N822K mutant kinase), mouse Tel-Kit/Y823D-BaF3 (stably expressing KIT Y823D mutant kinase), mouse Tel-Kit/A829P-BaF3 (stably expressing KIT A829P mutant kinase), GIST-T1-T670I cells of the human gastrointestinal stromal tumor cell line (expressing KIT-T670I mutant gene). The above cell lines were constructed by: amplifying respectively the sequences of human KIT and various mutant kinase regions of KIT via PCR, inserting the fragments respectively into MSCV-Puro vectors having a N-terminal TEL fragment and/or a NPM fragment and/or a TPR fragment (purchased from Clontech), transfecting mouse BaF3 cells with the vectors by means of retrovirus to obtain stably transfected cells, removing the growth factor IL-3, and thereby eventually obtaining cell lines that depend on the transferred protein KIT or various mutants of KIT. The GIST-T1-T670I (expressing C-KIT-T670I mutant gene) cell line was constructed by our laboratory as follows: designing sgRNA that targeted a region around T670 of the KIT gene with CRISPR Design Tool (website: crispr.mit.edu, Zhang Feng Lab), cloning it into pSpCas9(BB)-2A-Puro vector; co-transfecting cells with the resultant vector and a single-stranded oligonucleotide having T670I site mutation that is near to T670, subjecting the resultant to antibiotics screening, followed by dilution, and monocellular culture in a 96-well plate; validating the site T670 of the cells by sequence detection via Sanger sequencing.
# The cells after incubation were detected using CCK-8 (purchased from MedChem Express, Shanghai, China) cell viability assay kit (CCK-8 may be reduced by dehydrogenase in living cells to a highly water-soluble yellow formazan product, and the amount of the resultant formazan is proportional to the number of living cells), the number of living cells were quantified with a microplate reader, and GI50 of the compounds and the control compounds were calculated (the results shown in Table 2 and Table 3).
# [2] = tested on: TEL-cKIT/T670I-BaF3 mouse tumor model; experiment: Tumor-grafted mouse model established with TEL-cKIT/T670I-BaF3 cells; format: in vivo; settings: oral, every day
# Experimental: In this example Compound 1 and Compound 2 were respectively tested in TEL-cKIT/T670I-BaF3, TEL-cKIT/Y823D-BaF3, TEL-cKIT/D820G-BaF3 and GIST-T1-T670I mouse models.
# Experimental protocols were as follows. • (1) Bal b/c female mice aged 4-6 weeks were purchased from Beijing Weitong Lihua Laboratory Animal Co., Ltd., and the mice were raised in an SPF laboratory. The drinking water and padding were sterilized by autoclaving. All operations on mice were conducted under aseptic conditions. • (2) About 5×10^6 TEL-cKIT/T670I-BaF3, TEL-cKIT/Y823D-BaF3, TEL-cKIT/D820G-BaF3 or GIST-T1-T670I cells were respectively injected subcutaneously onto the left back of all mice on Day 0. • (3) From Day 6, for the TEL-cKIT/T670I-BaF3 mouse model the corresponding mice were administrated orally every day with methylcellulose (HKI) as the vehicle (5 mice); with Compound 1 and Compound 2 at a dosage of 10 mg/kg, 20 mg/kg, 40 mg/kg, 100 mg/kg mouse weight (5 mice in each group); and with Sunitnib (purchased from MedChemExpress, China) at a dosage of 40 mg/kg mouse weight (5 mice). From day 6, for the TEL-cKIT/Y823D-BaF3 and TEL-cKIT/D820G-BaF3 mouse models the corresponding mice were administrated orally every day with methylcellulose (HKI) as the vehicle (5 mice); with Compound 1 and Compound 2 at a dosage of 40 mg/kg, 80 mg/kg mouse weight (5 mice in each group); and with Sunitnib (purchased from MedChemExpress, China) at a dosage of 40 mg/kg mouse weight (5 mice). From day 15, for the GIST-T1-T670I mouse model the corresponding mice were administrated orally every day with methylcellulose (HKI) as the vehicle (5 mice); with Compound 1 and Compound 2 at a dosage of 20 mg/kg, 40 mg/kg, 80 mg/kg mouse weight (5 mice in each group); and with Sunitnib at a dosage of 40 mg/kg mouse weight (5 mice). • (4) From day 6 (TEL-cKIT/T670I-BaF3, TEL-cKIT/Y823D-BaF3, TEL-cKIT/D820G-BaF3 mouse model) and From day 15 (GIST-T1-T670I mouse model), respectively, the length/width of the subcutaneous tumor were measured with a vernier caliper every day and the body weight of the mouse was recorded every day so as to determine the effects of Compound 1 and Compound 2 on the body weight and tumor size of the mice, respectively. • (5) The mice were sacrificed on Day 11 after administration for the TEL-cKIT/T670I-BaF3 mouse model, on Day 9 after administration for the TEL-cKIT/Y823D-BaF3 and TEL-cKIT/D820G-BaF3 mouse models, and on Day 28 after administration for the GIST-T1-T670I mouse model. The subcutaneous tumors were taken out, and the tumors were weighed and compared. • (6) The growth trend of subcutaneous tumors was calculated and the tumor size was calculated according to: length×width×width/2 mm^3.
Structure (SMILES),GI50 ([1]; 72 h),inhibitory effects against tumor in mice ([2]; 40 mg/kg),influence on mice weight [2],"GI50 ([1]; KIT wild-type, 72 hours, CCK-8)",tumor inhibition rate ([2]; 40 mg/kg)
"COc1cc2nccc(Oc3ccc(NC(=O)Cc4ccc(C)c(C(F)(F)F)c4)cc3)c2cc1OC [Example 1, N-(4-((6,7-dimethoxyquinolin-4-yl)oxy)phenyl)-2-(4-methyl-3-(trifluoromethyl)phenyl)acetamide]",17 nM,excellent inhibitory effects against tumor in mice,without significant influence on mice weight,–,–
"COc1cc2nccc(Oc3ccc(NC(=O)Cc4ccc(Cl)c(C(F)(F)F)c4)cc3)c2cc1OC [Example 2, N-(4-((6,7-dimethoxyquinolin-4-yl)oxy)phenyl)-2-(4-chloro-3-(trifluoromethyl)phenyl)-acetamide]",–,excellent inhibitory effects against tumor in mice,without significant influence on mice weight,1 nM,≥ 80%
